According to US9045524B2, “Selective caspase inhibitors and uses thereof” (NOVAGENESIS FOUNDATION, priority 2009, dated 2015):

Key:
[1] = tested on: proteolytic cleavage of PARP (poly ADP-ribose polymerase) in Hela cells; assay: Inhibition of staurosporine-induced PARP cleavage in live Hela cells; format: cell-based
How it was run: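 HeLa cells in 96 well plates were exposed for 4 hours to the apoptosis inducer staurosporine with or without test compound. Fixed cells were stained with a fluorescein-labeled anti-cleaved PARP antibody and counterstained with Hoechst33342. Cellomics imaging gave the fraction of nuclei positive for cleaved PARP, and inhibition was computed relative to staurosporine-only treatment.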

[2] = biological target: Caspase-1 (Homo sapiens (Human), UniProt P29466); assay: Caspase-1 Inhibitor Drug Screening Kit, fluorometric (AFC liberation); format: biochemical; conditions: 30-minute incubation at 37° C.; approximations of the average values; read-out: Caspase enzymatic activity, IC50 (uM) Caspase 1
Chain of Caspase-1 (P29466 120-404): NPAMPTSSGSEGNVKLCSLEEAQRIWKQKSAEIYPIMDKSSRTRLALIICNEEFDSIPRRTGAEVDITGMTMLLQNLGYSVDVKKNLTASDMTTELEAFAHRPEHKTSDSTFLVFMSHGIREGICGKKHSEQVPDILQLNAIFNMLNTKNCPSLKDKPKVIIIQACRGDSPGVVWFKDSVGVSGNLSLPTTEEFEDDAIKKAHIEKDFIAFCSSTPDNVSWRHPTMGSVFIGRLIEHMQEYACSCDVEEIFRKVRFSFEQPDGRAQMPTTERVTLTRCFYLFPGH
Method: The level of inhibition of caspase-1, -3, -5, -7, -9 activity was determined by comparison of the relative fluorescence intensity in samples with or without the compound.

[3] = biological target: Caspase-2 (Homo sapiens (Human), UniProt P42575); assay: Fluorometric enzymatic assay, active recombinant Caspase-2; format: biochemical; conditions: 10-point titration 0.1 nM to 3.3 μM, 30-minute incubation at 37° C.; read-out: IC50 values (μM) Caspase-2
Chain of Caspase-2 (P42575 170-325): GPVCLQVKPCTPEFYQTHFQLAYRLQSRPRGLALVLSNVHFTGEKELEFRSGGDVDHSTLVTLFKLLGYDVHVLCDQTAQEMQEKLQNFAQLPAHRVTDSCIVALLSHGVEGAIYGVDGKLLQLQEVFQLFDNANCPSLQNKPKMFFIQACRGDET
Chain of Caspase-2 (P42575 348-452): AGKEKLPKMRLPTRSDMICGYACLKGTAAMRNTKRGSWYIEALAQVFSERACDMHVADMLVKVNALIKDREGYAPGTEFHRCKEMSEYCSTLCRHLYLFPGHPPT
Method: . In brief, each compound was serially diluted for a final test concentration range of 0.1 nM to 3.3 μM (10-point titration). Each active recombinant Caspase (Active Recombinant Caspase Set IV™ (BioVision, Cat# K233-10-25)) was added to the respective wells of the 96-well High Efficiency™ plates (Molecular Devices, Cat#75-000-0005), followed by the addition of the diluted test compounds. DMSO (Final=1%) or Z-VAD-FMK (Caspase-Family Inhibitor, Z-VAD-FMK (BioVision, Cat#1010-100), Final concentration=20 uM) was added in the designated wells as a background control or positive inhibitor control respectively. Each dilution of the test compounds was tested in duplicates, whereas the DMSO or Z-VAD-FMK controls were tested in triplicates. The synthetic peptide substrate specific for each Caspase (BioVision) was then added to the respective wells, which when cleaved by the active caspase releases free AFC that can be quantified by fluorometry. After a 30-minute incubation at 37° C., the plates were read using the Flexstation 3™ with a 400 nm excitation filter and a 505 nm emission filter (cutoff at 495 nm). The inhibition efficiency and the IC50 values of the test compounds were then determined by comparing the fluorescence intensity (FI) of the test compounds with that of the DMSO control.
The SoftMax Pro Software™ (v5.2 rev C, Molecular Devices) was used for data analysis. The % Inhibition is calculated by: % Inhibition=[FI(DMSO)−FI(test sample)/FI(DMSO)]×100. The % Inhibition vs. Log(concentration) was plotted, and the curve was fitted using the 5-parameter fit of the software.

CC(C)[C@H](NC(=O)[C@@H](NC(=O)[C@H](CC(=O)O)NC(=O)OCc1ccccc1)c1ccccc1)C(=O)N[C@H](/C=C/S(C)(=O)=O)CC(=O)O [Compound 53, Z-Asp-Phg-Val-Aspmethyl vinyl sulfone]
effectivity in inhibiting PARP cleavage ([1]; Hela cells, staurosporine): highly effective relative to DEVD-fmk | inhibition at 50 µM ([1]; Homo sapiens, HeLa, 4 h, read-out: % inhibition of PARP cleavage at 50 uM compound, Hela cells, staurosporine 4 hours, 50 uM compound): > 50% | IC50 [2]: 2 µM | IC50 [3]: > 3.33 µM
